Measured values reported in the NIST ThermoML archive (doi:10.1016/j.fluid.2018.07.028).
± gives the expanded uncertainty stated by the source.

Assay: activity coefficient (dimensionless); of the first substance listed, at infinite dilution; xn = mol fraction of the nth substance listed
Conditions: 101.33 kPa, Liquid, Chromatography, x1 = 0

SMILES	activity coefficient (358.15 K)	activity coefficient (368.15 K)	activity coefficient (378.15 K)	activity coefficient (388.15 K)	activity coefficient (398.15 K)	activity coefficient (408.15 K)
CC#N [acetonitrile] + CCCC[P+](CCCC)(CCCC)CCCC.O=S(=O)([N-]S(=O)(=O)C(F)(F)F)C(F)(F)F	0.602 ± 0.042	0.613 ± 0.043	0.625 ± 0.043	0.635 ± 0.044	0.645 ± 0.044	0.655 ± 0.045
c1ccccc1 [benzene] + CCCC[P+](CCCC)(CCCC)CCCC.O=S(=O)([N-]S(=O)(=O)C(F)(F)F)C(F)(F)F	0.836 ± 0.054	0.869 ± 0.056	0.901 ± 0.057	0.933 ± 0.059	0.963 ± 0.061	0.994 ± 0.062
CCCCO [butan-1-ol] + CCCC[P+](CCCC)(CCCC)CCCC.O=S(=O)([N-]S(=O)(=O)C(F)(F)F)C(F)(F)F	1.67 ± 0.11	1.61 ± 0.11	1.56 ± 0.1	1.51 ± 0.1	1.46 ± 0.1	1.42 ± 0.09
CCC(C)O (stereo unspecified) [butan-2-ol] + CCCC[P+](CCCC)(CCCC)CCCC.O=S(=O)([N-]S(=O)(=O)C(F)(F)F)C(F)(F)F	1.53 ± 0.1	1.49 ± 0.1	1.46 ± 0.1	1.43 ± 0.09	1.4 ± 0.09	1.37 ± 0.09
CCCC=O [butanal] + CCCC[P+](CCCC)(CCCC)CCCC.O=S(=O)([N-]S(=O)(=O)C(F)(F)F)C(F)(F)F	0.669 ± 0.045	0.699 ± 0.047	0.729 ± 0.048	0.758 ± 0.05	0.787 ± 0.051	0.817 ± 0.053
C1CCCCCC1 [cycloheptane] + CCCC[P+](CCCC)(CCCC)CCCC.O=S(=O)([N-]S(=O)(=O)C(F)(F)F)C(F)(F)F	3.42 ± 0.23	3.41 ± 0.23	3.4 ± 0.23	3.39 ± 0.23	3.38 ± 0.23	3.37 ± 0.23
C1CCCCC1 [cyclohexane] + CCCC[P+](CCCC)(CCCC)CCCC.O=S(=O)([N-]S(=O)(=O)C(F)(F)F)C(F)(F)F	2.85 ± 0.19	2.85 ± 0.19	2.85 ± 0.19	2.86 ± 0.19	2.86 ± 0.19	2.86 ± 0.19
C1=CCCCC1 [cyclohexene] + CCCC[P+](CCCC)(CCCC)CCCC.O=S(=O)([N-]S(=O)(=O)C(F)(F)F)C(F)(F)F	2.24 ± 0.15	2.27 ± 0.15	2.29 ± 0.16	2.32 ± 0.16	2.34 ± 0.16	2.37 ± 0.16
C1CCCCCCC1 [cyclooctane] + CCCC[P+](CCCC)(CCCC)CCCC.O=S(=O)([N-]S(=O)(=O)C(F)(F)F)C(F)(F)F	4.08 ± 0.28	4.04 ± 0.28	4 ± 0.27	3.97 ± 0.27	3.94 ± 0.27	3.91 ± 0.27
C1CCCC1 [cyclopentane] + CCCC[P+](CCCC)(CCCC)CCCC.O=S(=O)([N-]S(=O)(=O)C(F)(F)F)C(F)(F)F	2.33 ± 0.16	2.35 ± 0.16	2.37 ± 0.16	2.38 ± 0.16	2.4 ± 0.16	2.42 ± 0.16
CCCCCCCCCC [decane] + CCCC[P+](CCCC)(CCCC)CCCC.O=S(=O)([N-]S(=O)(=O)C(F)(F)F)C(F)(F)F	10.4 ± 0.7	10.1 ± 0.7	9.88 ± 0.67	9.67 ± 0.66	9.47 ± 0.65	9.29 ± 0.63
CCOCC [diethyl ether] + CCCC[P+](CCCC)(CCCC)CCCC.O=S(=O)([N-]S(=O)(=O)C(F)(F)F)C(F)(F)F	1.65 ± 0.11	1.7 ± 0.11	1.76 ± 0.12	1.8 ± 0.12	1.86 ± 0.13	1.91 ± 0.13
CC(C)OC(C)C [diisopropyl ether] + CCCC[P+](CCCC)(CCCC)CCCC.O=S(=O)([N-]S(=O)(=O)C(F)(F)F)C(F)(F)F	2.88 ± 0.2	2.94 ± 0.2	3 ± 0.2	3.05 ± 0.21	3.11 ± 0.21	3.17 ± 0.22
CCCOCCC [dipropyl ether] + CCCC[P+](CCCC)(CCCC)CCCC.O=S(=O)([N-]S(=O)(=O)C(F)(F)F)C(F)(F)F	2.73 ± 0.19	2.78 ± 0.19	2.83 ± 0.19	2.88 ± 0.2	2.93 ± 0.2	2.98 ± 0.2
CCO [ethanol] + CCCC[P+](CCCC)(CCCC)CCCC.O=S(=O)([N-]S(=O)(=O)C(F)(F)F)C(F)(F)F	1.42 ± 0.09	1.36 ± 0.09	1.31 ± 0.09	1.26 ± 0.08	1.22 ± 0.08	1.18 ± 0.08
CCOC(C)=O [ethyl acetate] + CCCC[P+](CCCC)(CCCC)CCCC.O=S(=O)([N-]S(=O)(=O)C(F)(F)F)C(F)(F)F	0.835 ± 0.054	0.869 ± 0.056	0.905 ± 0.057	0.939 ± 0.059	0.975 ± 0.061	1.01 ± 0.063

SMILES	activity coefficient (358.15 K)	activity coefficient (368.15 K)	activity coefficient (378.15 K)	activity coefficient (388.15 K)	activity coefficient (398.15 K)	activity coefficient (408.15 K)
CCc1ccccc1 [ethylbenzene] + CCCC[P+](CCCC)(CCCC)CCCC.O=S(=O)([N-]S(=O)(=O)C(F)(F)F)C(F)(F)F	1.49 ± 0.1	1.54 ± 0.1	1.58 ± 0.1	1.63 ± 0.11	1.67 ± 0.11	1.71 ± 0.11
CCCCCCC [heptane] + CCCC[P+](CCCC)(CCCC)CCCC.O=S(=O)([N-]S(=O)(=O)C(F)(F)F)C(F)(F)F	5.4 ± 0.37	5.38 ± 0.37	5.37 ± 0.37	5.35 ± 0.36	5.34 ± 0.36	5.33 ± 0.36
C=CCCCC [hex-1-ene] + CCCC[P+](CCCC)(CCCC)CCCC.O=S(=O)([N-]S(=O)(=O)C(F)(F)F)C(F)(F)F	3.15 ± 0.21	3.2 ± 0.22	3.24 ± 0.22	3.28 ± 0.22	3.32 ± 0.23	3.35 ± 0.23
CCCCCC [hexane] + CCCC[P+](CCCC)(CCCC)CCCC.O=S(=O)([N-]S(=O)(=O)C(F)(F)F)C(F)(F)F	4.39 ± 0.3	4.41 ± 0.3	4.44 ± 0.3	4.46 ± 0.3	4.49 ± 0.31	4.51 ± 0.31
CC(C)c1ccccc1 [isopropylbenzene] + CCCC[P+](CCCC)(CCCC)CCCC.O=S(=O)([N-]S(=O)(=O)C(F)(F)F)C(F)(F)F	1.92 ± 0.13	1.97 ± 0.13	2.02 ± 0.14	2.07 ± 0.14	2.12 ± 0.14	2.17 ± 0.15
CO [methanol] + CCCC[P+](CCCC)(CCCC)CCCC.O=S(=O)([N-]S(=O)(=O)C(F)(F)F)C(F)(F)F	1.28 ± 0.08	1.23 ± 0.08	1.18 ± 0.08	1.14 ± 0.07	1.1 ± 0.07	1.06 ± 0.07
CCCC(=O)OC [methyl butanoate] + CCCC[P+](CCCC)(CCCC)CCCC.O=S(=O)([N-]S(=O)(=O)C(F)(F)F)C(F)(F)F	0.946 ± 0.06	0.989 ± 0.062	1.03 ± 0.06	1.08 ± 0.07	1.12 ± 0.07	1.17 ± 0.07
COC(C)=O [methyl ethanoate] + CCCC[P+](CCCC)(CCCC)CCCC.O=S(=O)([N-]S(=O)(=O)C(F)(F)F)C(F)(F)F	0.753 ± 0.05	0.785 ± 0.051	0.816 ± 0.053	0.847 ± 0.054	0.878 ± 0.056	0.909 ± 0.058
CCC(=O)OC [methyl propanoate] + CCCC[P+](CCCC)(CCCC)CCCC.O=S(=O)([N-]S(=O)(=O)C(F)(F)F)C(F)(F)F	0.82 ± 0.053	0.857 ± 0.055	0.894 ± 0.057	0.931 ± 0.059	0.967 ± 0.061	1 ± 0.06
CC1CCCCC1 [methylcyclohexane] + CCCC[P+](CCCC)(CCCC)CCCC.O=S(=O)([N-]S(=O)(=O)C(F)(F)F)C(F)(F)F	3.5 ± 0.24	3.49 ± 0.24	3.48 ± 0.24	3.48 ± 0.24	3.47 ± 0.24	3.46 ± 0.24
CCCCCCCCC [nonane] + CCCC[P+](CCCC)(CCCC)CCCC.O=S(=O)([N-]S(=O)(=O)C(F)(F)F)C(F)(F)F	8.31 ± 0.57	8.15 ± 0.56	8.01 ± 0.55	7.87 ± 0.54	7.74 ± 0.53	7.62 ± 0.52
C=CCCCCCC [oct-1-ene] + CCCC[P+](CCCC)(CCCC)CCCC.O=S(=O)([N-]S(=O)(=O)C(F)(F)F)C(F)(F)F	4.9 ± 0.33	4.92 ± 0.34	4.94 ± 0.34	4.96 ± 0.34	4.98 ± 0.34	5.01 ± 0.34
CCCCCCCC [octane] + CCCC[P+](CCCC)(CCCC)CCCC.O=S(=O)([N-]S(=O)(=O)C(F)(F)F)C(F)(F)F	6.69 ± 0.46	6.62 ± 0.45	6.56 ± 0.45	6.5 ± 0.44	6.44 ± 0.44	6.39 ± 0.44
CCCCCO [pentan-1-ol] + CCCC[P+](CCCC)(CCCC)CCCC.O=S(=O)([N-]S(=O)(=O)C(F)(F)F)C(F)(F)F	1.81 ± 0.12	1.76 ± 0.12	1.71 ± 0.11	1.67 ± 0.11	1.63 ± 0.11	1.59 ± 0.11
CCCC(C)=O [pentan-2-one] + CCCC[P+](CCCC)(CCCC)CCCC.O=S(=O)([N-]S(=O)(=O)C(F)(F)F)C(F)(F)F	0.62 ± 0.043	0.651 ± 0.045	0.682 ± 0.046	0.714 ± 0.048	0.744 ± 0.049	0.774 ± 0.051
